Test results as given in ChEMBL document CHEMBL4028852, “Design of a Chemical Probe for the Bromodomain and Plant Homeodomain Finger-Containing (BRPF) Family of Proteins” (J Med Chem, 2017).

Assays:
[1] = Apparent permeability across apical to basolateral side in human Caco2 cells at 10 uM after 2 hrs by LC-MS/MS analysis; format: ADME, cell-based; settings: Caco-2
[2] = system: DMS-114; experiment: Inhibition of cell proliferation of human DMS114 cells after 72 hrs by MTS assay; format: functional; settings: DMS-114, 72 h
[3] = target: T1, Peregrin (Homo sapiens, UniProt P55201); experiment: Inhibition of BRPF1B (unknown origin) binding to histone H3.3 by nonoBRET assay
T1 sequence (P55201 whole entry): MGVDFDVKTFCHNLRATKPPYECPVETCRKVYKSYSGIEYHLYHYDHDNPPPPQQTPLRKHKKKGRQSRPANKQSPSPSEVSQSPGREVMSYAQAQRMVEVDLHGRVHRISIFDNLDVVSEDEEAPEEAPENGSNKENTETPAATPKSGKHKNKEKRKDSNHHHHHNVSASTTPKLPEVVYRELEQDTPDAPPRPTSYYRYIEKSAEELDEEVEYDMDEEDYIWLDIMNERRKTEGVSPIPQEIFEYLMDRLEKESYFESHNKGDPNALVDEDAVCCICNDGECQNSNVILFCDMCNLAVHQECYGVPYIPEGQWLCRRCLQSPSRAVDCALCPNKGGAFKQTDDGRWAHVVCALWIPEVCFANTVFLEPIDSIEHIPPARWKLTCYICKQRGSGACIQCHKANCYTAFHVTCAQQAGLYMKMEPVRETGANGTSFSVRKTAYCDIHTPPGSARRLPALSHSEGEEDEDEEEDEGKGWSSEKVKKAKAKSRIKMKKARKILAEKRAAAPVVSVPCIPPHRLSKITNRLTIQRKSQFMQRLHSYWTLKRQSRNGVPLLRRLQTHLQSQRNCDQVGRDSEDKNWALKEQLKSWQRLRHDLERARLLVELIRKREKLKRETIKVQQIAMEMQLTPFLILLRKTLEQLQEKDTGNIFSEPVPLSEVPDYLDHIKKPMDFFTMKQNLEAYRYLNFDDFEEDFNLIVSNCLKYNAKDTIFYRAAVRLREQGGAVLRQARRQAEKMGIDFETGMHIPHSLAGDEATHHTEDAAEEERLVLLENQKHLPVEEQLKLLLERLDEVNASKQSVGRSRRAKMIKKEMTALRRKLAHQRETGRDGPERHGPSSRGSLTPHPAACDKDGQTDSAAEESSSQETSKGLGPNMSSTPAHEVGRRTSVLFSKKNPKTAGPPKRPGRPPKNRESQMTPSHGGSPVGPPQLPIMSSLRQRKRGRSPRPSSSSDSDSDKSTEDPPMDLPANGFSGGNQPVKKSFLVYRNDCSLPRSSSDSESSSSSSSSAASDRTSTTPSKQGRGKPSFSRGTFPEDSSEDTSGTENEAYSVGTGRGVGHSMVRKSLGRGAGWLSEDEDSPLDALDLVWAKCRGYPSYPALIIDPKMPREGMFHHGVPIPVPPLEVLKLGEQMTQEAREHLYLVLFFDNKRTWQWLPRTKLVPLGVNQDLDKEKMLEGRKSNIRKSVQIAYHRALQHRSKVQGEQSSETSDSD

[4] = Inhibition of cell proliferation of human HRA19 cells after 72 hrs by MTS assay; format: functional; settings: HRA19, 72 h
[5] = target: T2, Kv4.3/KChIP2 (Homo sapiens, UniProt Q9NS61+Q9UK17); experiment: Inhibition of Kv4.3/KChIP2 (unknown origin) at 30 uM; format: protein-complex assay
T2 sequence (Q9UK17 whole entry): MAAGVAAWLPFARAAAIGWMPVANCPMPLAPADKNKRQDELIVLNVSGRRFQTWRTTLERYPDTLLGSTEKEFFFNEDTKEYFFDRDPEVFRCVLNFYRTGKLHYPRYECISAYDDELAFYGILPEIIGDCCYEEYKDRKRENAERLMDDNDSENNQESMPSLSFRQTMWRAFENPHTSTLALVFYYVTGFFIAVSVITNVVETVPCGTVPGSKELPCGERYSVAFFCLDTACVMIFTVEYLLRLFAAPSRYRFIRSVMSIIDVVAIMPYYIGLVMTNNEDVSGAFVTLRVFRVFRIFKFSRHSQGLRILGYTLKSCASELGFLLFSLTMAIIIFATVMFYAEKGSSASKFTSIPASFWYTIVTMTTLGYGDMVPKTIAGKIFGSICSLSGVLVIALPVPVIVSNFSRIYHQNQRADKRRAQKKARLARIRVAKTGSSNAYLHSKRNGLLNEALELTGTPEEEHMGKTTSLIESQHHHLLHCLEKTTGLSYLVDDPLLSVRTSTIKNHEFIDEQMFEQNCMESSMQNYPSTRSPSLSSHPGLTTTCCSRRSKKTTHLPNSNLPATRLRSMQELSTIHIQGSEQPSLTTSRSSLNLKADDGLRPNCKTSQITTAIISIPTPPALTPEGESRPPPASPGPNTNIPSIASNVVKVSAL
T2 sequence (Q9NS61 whole entry): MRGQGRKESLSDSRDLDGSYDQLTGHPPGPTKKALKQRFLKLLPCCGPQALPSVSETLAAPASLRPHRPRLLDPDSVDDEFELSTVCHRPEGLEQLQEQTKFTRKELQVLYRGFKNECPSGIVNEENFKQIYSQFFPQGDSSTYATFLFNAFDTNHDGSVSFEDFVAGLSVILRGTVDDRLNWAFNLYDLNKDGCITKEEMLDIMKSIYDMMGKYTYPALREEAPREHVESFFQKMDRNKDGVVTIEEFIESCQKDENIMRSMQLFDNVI

[6] = target: T3, Bromodomain-containing protein 9 (Homo sapiens, UniProt Q9H8M2); experiment: Inhibition of His-tagged BRD9 (unknown origin) after 30 mins by alphaScreen assay
T3 sequence (Q9H8M2 whole entry): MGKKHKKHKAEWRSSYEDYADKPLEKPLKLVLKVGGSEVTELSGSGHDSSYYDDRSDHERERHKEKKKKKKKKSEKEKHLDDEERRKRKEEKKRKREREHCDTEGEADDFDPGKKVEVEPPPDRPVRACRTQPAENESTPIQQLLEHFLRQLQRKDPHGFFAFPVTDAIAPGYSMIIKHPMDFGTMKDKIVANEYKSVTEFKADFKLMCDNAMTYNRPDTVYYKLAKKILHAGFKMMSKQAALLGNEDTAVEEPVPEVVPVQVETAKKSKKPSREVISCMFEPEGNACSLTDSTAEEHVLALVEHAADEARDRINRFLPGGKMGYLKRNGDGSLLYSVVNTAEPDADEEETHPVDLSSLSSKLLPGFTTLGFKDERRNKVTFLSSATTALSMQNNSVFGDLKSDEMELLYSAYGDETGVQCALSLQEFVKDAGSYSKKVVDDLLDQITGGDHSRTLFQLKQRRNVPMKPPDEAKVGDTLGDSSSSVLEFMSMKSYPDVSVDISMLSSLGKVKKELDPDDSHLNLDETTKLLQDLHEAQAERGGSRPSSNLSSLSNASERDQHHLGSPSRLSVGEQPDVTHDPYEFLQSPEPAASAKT

[7] = system: Liver; experiment: Metabolic stability in human liver microsomes by UPLC-MS/MS analysis; format: ADME, microsome

Work on `COc1cc(C#N)ccc1S(=O)(=O)Nc1ccc2c(c1)cc(C)c(=O)n2C` yielded a Papp A→B at 2 h, 10 µM [1] of 110 nm/s, a GI50 [2] of 14.7 µM and an IC50 [3] of 0.07 µM. The GI50 [4] was 15.6 µM, the inhibition at 30 µM [5] was less than 40% and the IC50 [6] was 4.4 µM. For the same compound, the Stability [7] was “Stable”.
